How the values were obtained:
[1] = Serum concentration following oral administration in men (pharmacokinetic experiments); type: in vivo
Procedure: NNC 0756 (80 mg) and another dopamine D1 receptor antagonist, the compound of Example 4 (25 mg), were administered to two and three men, respectively. Serum concentrations of the compounds were measured 1.5 and 6.0 hours following oral administration of the compound of Example 4 and 1.5 and 8.0-8.8 hours following oral administration of NNC 0756.

[2] = background statement, no test described; cited from earlier work
dopamine D1 receptor [3] = details: preclinical, rat; cited from earlier work
dopamine D1 receptor [4] = details: preclinical, rat; cited from earlier work; remark: listed apart in the source

## CN1CCc2cc([N+](=O)[O-])c(O)cc2C(c2cccc3c2OCC3)C1 (single isomer, unassigned; (+)) [Example 4, (+)-5-(2,3-dihydrobenzofuran-7-yl)-7-hydroxy-3-methyl-8-nitro-2,3,4,5-tetrahydro-1H-3-benzazepine]
[1]; 25 mg oral, three men, 6 hours after administration vs 1.5 hours
  serum concentration of the compound of Example 4 relative to the serum concentration measured 1.5 hours after drug administration: about 10%
[1]; compared to the kinetic profile of NNC 0756
  elimination time compared to NNC 0756: shorter elimination time

## CN1CCc2cc(Cl)c(O)cc2C(c2cccc3c2OCC3)C1 (single isomer, unassigned; (+)) [NNC 0756, (+)-8-chloro-7-hydroxy-3-methyl-5-(2,3-dihydrobenzofuran-7-yl)-2,3,4,5-tetrahydro-1H-3-benzazepine]
[2]
  half life: relatively long half life
Dopamine D1 receptor [3]
  REM and non-REM sleep: increase in both REM and non-REM sleep
  time spent in sleep: markedly enhance the time spent in sleep
[1]; 80 mg oral, two men, 8.0-8.8 hours after administration vs 1.5 hours
  serum concentration of NNC 0756 relative to the serum concentration measured 1.5 hours after administration: about 35%

## Oc1cc2c(cc1O)C(c1ccccc1)CNCC2 (centres unmarked) [SKF 38393]
Dopamine D1 receptor [4]
  amount of REM sleep: reduced the amount of REM sleep
  duration of wakefulness: increased the duration of wakefulness
